System: brain dead adult beagle dogs
Conditions: dog, in vivo
Method: Care and Use Committee. Adult beagle dogs (8-10 kg) of either sex (n=11) were initially anesthetized with propofol (10 mg/kg, intravenous or IV). After intubation, anesthesia was maintained with isoflurane at 1-2% on mechanical ventilation with FiO2 at 30%, ventilation rate of 12, which was adjusted as necessary to achieve a PaCO2 goal of 38-42 mmHg. A circulating water-warming pad was used to maintain normothermia throughout the experiment. The femoral artery was cannulated for arterial blood sampling and for measurement of arterial blood pressure and heart rate. The external jugular vein was also accessed and cannulated for administration of fluids and necessary medications.
Explosive brain death was induced in anesthetized adult Beagle dogs by inflating a balloon catheter (16 Fr. Foley) that was placed under the skull from a trephination burr hole. The balloon was inflated from 0-8 ml volume over about 5 minutes. which ultimately causes the brain stem to herniate through the foramen at the base of the skull. This causes rapid brain death that is characterized by the occurrence of a Cushing reflex, a negative apnea reflex, and fixed and dilated pupils. This methodology has previously been described by Mangino, et al.
The animals were assigned to either the control group (n=5) or the PEG-20k group (n=6) within the first hour. Both groups were treated in a standard fashion. […]

In the case of polyethylene glycol-20k [PEG-20k], the Hb level trend is reported as “trended lower”.
